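Values below derive from 48-hour exposures of cells grown in 96-well plates, with endpoints linearly interpolated between the two concentrations bracketing the appropriate inhibition level. At the GI50, growth is halved. TGI denotes the concentration required for complete inhibition of growth.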
Columns and labels:
Assay in all cases: NCI tumour cell line growth inhibition, 48 h
A549 NSCLC = system: A549 NSCLC
CAKI-1 renal = system: CAKI-1 renal
EKVX NSCLC = system: EKVX NSCLC
MALME-3M melanoma = system: MALME-3M melanoma
MCF7 breast = system: MCF7 breast
RPMI-8226 leukemia = system: RPMI-8226 leukemia
RXF 393 renal = system: RXF 393 renal
SF-295 CNS = system: SF-295 CNS
SK-MEL-28 melanoma = system: SK-MEL-28 melanoma
SK-MEL-5 melanoma = system: SK-MEL-5 melanoma
SN12C renal = system: SN12C renal
SNB-19 CNS = system: SNB-19 CNS
SW-620 colon = system: SW-620 colon
UACC-257 melanoma = system: UACC-257 melanoma
UACC-62 melanoma = system: UACC-62 melanoma
UO-31 renal = system: UO-31 renal

Compound | TGI (A549 NSCLC) [µM] | TGI (CAKI-1 renal) [µM] | TGI (EKVX NSCLC) [µM] | TGI (MALME-3M melanoma) [µM] | TGI (MCF7 breast) [µM] | TGI (RPMI-8226 leukemia) [µM] | TGI (RXF 393 renal) [µM] | TGI (SF-295 CNS) [µM] | TGI (SK-MEL-28 melanoma) [µM] | TGI (SK-MEL-5 melanoma) [µM] | TGI (SN12C renal) [µM] | TGI (SNB-19 CNS) [µM] | TGI (SW-620 colon) [µM] | TGI (UACC-257 melanoma) [µM] | TGI (UACC-62 melanoma) [µM] | TGI (UO-31 renal) [µM] | GI50 (SK-MEL-5 melanoma) [µM]
CCn1c(=O)ccc2ccc(N(CCO)CCO)nc21 | > 100 | > 100 | > 100 | > 100 | > 100 | > 100 | > 100 | > 100 | > 100 | > 100 | > 100 | > 100 | > 100 | > 100 | > 100 | > 100 | –
Cc1c(CCCl)c(N=[N+]=[N-])n2c(nc3ccccc32)c1C#N | 5.95 | 3 | 4.4 | 2.9 | 2.14 | 2.33 | 2.85 | 3.54 | 3.27 | 1.35 | 3.13 | 8.37 | 1.21 | 3.53 | 3.12 | 3.32 | –
N=C(N)n1[nH]c2c(c1=O)CCCC2 | > 100 | > 100 | > 100 | > 100 | > 100 | > 100 | > 100 | > 100 | > 100 | > 100 | > 100 | > 100 | > 100 | > 100 | > 100 | > 100 | –
O=[N+]([O-])c1cccc2nc3ccccc3c(NCCCN3CCOCC3)c12 | 0.0674 | 0.0785 | 0.0559 | 0.026 | 0.103 | 0.187 | 0.0294 | 0.0854 | 0.138 | 0.0263 | 0.0455 | 0.177 | 0.686 | 0.0527 | 0.0326 | 0.0564 | –
CC(C)N=C(NC#N)NS(=O)(=O)c1cnccc1Nc1ccc(Cl)cc1 | > 100 | > 100 | > 100 | > 100 | > 100 | > 100 | > 100 | > 100 | > 100 | > 100 | > 100 | > 100 | > 100 | > 100 | > 100 | > 100 | –
CN(C)CC(CO)(CN(C)C)CN(C)C | > 100 | > 100 | > 100 | > 100 | > 100 | > 100 | > 100 | > 100 | > 100 | > 100 | > 100 | > 100 | > 100 | > 100 | > 100 | > 100 | –
N#CC(C#N)=C(N)/C(C#N)=C/c1cc(O)c(O)c(Br)c1 | > 100 | > 100 | > 100 | > 100 | > 100 | > 100 | > 100 | > 100 | > 100 | > 100 | > 100 | > 100 | > 100 | > 100 | > 100 | > 100 | –
Cn1cc(C[C@@H](N)C(=O)O)c2ccccc21 | > 100 | > 100 | > 100 | > 100 | > 100 | > 100 | > 100 | > 100 | > 100 | > 100 | > 100 | > 100 | > 100 | > 100 | > 100 | > 100 | > 100
O=c1cc(-c2ccccc2)oc2ccc(Oc3nnnn3-c3ccccc3)cc12 | > 100 | > 86.5 | > 100 | > 100 | > 100 | > 100 | > 76.1 | > 79.9 | > 100 | > 100 | > 100 | > 82.6 | > 100 | > 100 | > 100 | > 100 | –
c1ccc2sc(C3(N4CCCCC4)CCCCCC3)cc2c1 | 80.9 | 64.2 | 47.2 | 53.9 | 31.9 | 28.7 | 28.6 | 49.1 | 21.6 | 31.3 | 41.4 | 39.4 | 25 | 34.9 | 80.4 | 60.8 | –
CCOC(=O)c1cc(C2CCN(Cc3ccccc3)C2=O)c(C(=O)C(=[N+]=[N-])C(C)=O)[nH]1 (centres undefined) | > 100 | > 100 | > 100 | > 100 | > 100 | > 100 | > 100 | > 100 | > 100 | > 100 | > 100 | > 100 | > 100 | > 100 | > 100 | > 100 | –
CCN(CC)Cc1nc(C2CCC([N+](=O)[O-])O2)no1 (centres undefined) | > 100 | > 100 | > 100 | 30.1 | 32.2 | > 100 | 86.8 | > 100 | 53.8 | 30.2 | > 100 | 87.8 | 35.9 | 40.8 | 30.7 | > 100 | –
Cc1ccc(-n2c(Cn3nnc(-c4cccnc4)n3)nn(C3OC(COC(=O)c4ccccc4)C(OC(=O)c4ccccc4)C3OC(=O)c3ccccc3)c2=S)cc1 (centres undefined) | > 100 | > 100 | > 100 | > 100 | > 100 | > 100 | > 100 | > 100 | > 100 | > 100 | > 100 | > 100 | > 100 | > 100 | > 100 | > 100 | –
CSc1nc2c(N)ncnc2n1C | > 100 | > 100 | > 100 | > 100 | > 100 | > 100 | > 100 | > 100 | > 100 | > 100 | > 100 | > 100 | > 100 | > 100 | > 100 | > 100 | –
[N-]=[N+]=Nc1c([N+](=O)[O-])c(Cl)nc2ccccc12 | 35.2 | 4.58 | 7.45 | 3.41 | 4.25 | > 20.8 | 3.28 | 38.5 | 5.23 | 21.3 | 5.32 | 27.8 | 1.73 | 3.45 | 9.07 | 1.58 | –
CCCC(=O)OC[n+]1cccc(-c2c(COC(=O)NC(C)C)c(COC(=O)NC(C)C)c3n2CCC3)c1 | > 100 | 46 | > 100 | > 100 | > 100 | > 100 | > 56.7 | > 100 | > 100 | > 100 | > 100 | > 100 | > 100 | > 100 | 61.8 | > 100 | –
CC1(C)CN=C(Nc2ccc(Cl)cc2)S1 | > 100 | > 100 | > 100 | > 100 | > 100 | > 100 | > 100 | > 100 | > 100 | > 100 | > 100 | > 100 | > 100 | > 100 | > 100 | > 100 | –
Cc1cc2c(cc1C)[n+](=O)c(C(=O)N1CCN(c3ccc([N+](=O)[O-])cc3)CC1)c(C)n2[O-] | > 100 | > 100 | 87.4 | > 100 | > 100 | > 100 | 41.3 | 31.6 | > 100 | > 100 | > 100 | > 100 | > 100 | > 100 | > 100 | > 100 | –

From PubChem BioAssay (NCI)
